From the supplement of paper PMC10307832

Columns and labels:
[1] = compound: C1=CC2=NC=CN=C2C=C1/C=C/3\C(=O)NC(=O)S3; experiment: relative viability (nuclei count vs DMSO), 5 days (fraction); higher = more cells survive
Summary of the method: (§1)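 Vehicle-anchored 1536-well plates of lung cancer cell lines, held overnight at 37 °C, were pinned with five library-drug doses (not always all listed) spaced by √10. No medium change followed over the next 5 days, after which the cells were fixed, permeabilised and Hoechst-stained together and imaged at 4×. Nuclei were counted with MetaXpress, and viability is treated-well nuclei over vehicle-well nuclei, taken as a median across plates. Plates passed with control CV below 25% and at least one doubling.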

[2] = compound: CCN1CCN(c2ccc(Nc3cc(N(C)C(=O)Nc4c(Cl)c(OC)cc(OC)c4Cl)ncn3)cc2)CC1 [BGJ398]; experiment: as above
Summary of the method: as §1

Cell Line	relative viability ([1]; 0.02 µM)	relative viability ([1]; 0.06325 µM)	relative viability ([1]; 0.2 µM)	relative viability ([1]; 0.6325 µM)	relative viability ([1]; 2 µM)	relative viability ([2]; 0.01 µM)	relative viability ([2]; 0.03162 µM)	relative viability ([2]; 0.1 µM)	relative viability ([2]; 0.3162 µM)	relative viability ([2]; 1 µM)
NCI-H460	0.933	0.964	0.999	0.939	0.942	1.02	1.04	1.11	0.984	0.988
NCI-H520	1.03	1.14	1.06	0.855	0.927	0.954	0.954	0.758	0.312	0.4
NCI-H522	0.934	1.13	1	0.75	0.751	0.918	0.89	1.04	0.82	0.874
NCI-H596	1.06	0.938	1.1	0.834	0.867	1.13	0.931	0.978	0.92	0.8
NCI-H647	0.959	1.13	1.08	0.84	0.938	0.869	1.07	1.03	0.867	0.799
NCI-H650	0.951	1.04	1.07	0.914	0.529	0.883	1.21	1.02	1.03	0.665
NCI-H661	1.01	1.04	1.02	0.972	1.07	0.977	0.997	0.983	0.987	0.914
NCI-H727	0.931	0.856	1.13	0.888	0.558	0.868	0.879	0.917	0.957	0.917
NCI-H838	0.96	0.957	1.02	0.821	0.776	0.845	0.938	0.984	0.8	0.742
NCI-H1299	0.996	1.04	1.02	1	1.01	0.99	1.05	1	0.993	1.02
NCI-H1355	0.821	0.984	1.05	0.923	0.875	0.943	0.961	1.02	0.971	0.795
NCI-H1395	1.05	0.985	1.06	0.884	0.899	0.853	0.946	0.847	0.589	0.483
NCI-H1437	1.01	0.983	1.04	0.964	0.703	0.978	1.01	1	1	0.832
NCI-H1563	1.06	0.93	1.11	0.822	1.12	0.992	0.993	0.936	0.831	0.701
NCI-H1623	0.936	0.806	0.909	0.957	0.786	1.08	0.805	1.05	0.908	1.03
NCI-H1648	0.925	0.605	1.11	0.701	1	0.882	0.809	0.73	0.775	0.889
NCI-H1650	0.953	0.952	0.974	1	0.975	0.874	0.747	0.909	0.487	0.692

Cell Line	relative viability ([1]; 0.02 µM)	relative viability ([1]; 0.06325 µM)	relative viability ([1]; 0.2 µM)	relative viability ([1]; 0.6325 µM)	relative viability ([1]; 2 µM)	relative viability ([2]; 0.01 µM)	relative viability ([2]; 0.03162 µM)	relative viability ([2]; 0.1 µM)	relative viability ([2]; 0.3162 µM)	relative viability ([2]; 1 µM)
NCI-H1651	0.959	0.876	0.994	0.877	0.884	0.921	0.96	1.08	0.936	0.87
NCI-H1666	0.944	0.962	0.966	0.971	0.893	1	1.03	0.966	0.98	0.8
NCI-H1703	1.09	1.33	0.942	0.864	0.736	0.872	1.04	1.02	0.806	0.967
NCI-H1734	0.94		1.07	0.916	0.635	0.895	1.02	1.06	0.93	1.05
NCI-H1755	0.887	0.949	0.986	0.925	0.93	0.933	1.06	1.05	0.963	1.01
NCI-H1792	0.956	0.783	0.927	0.857	0.411	0.903	0.851	0.704	0.811	0.652
NCI-H1793	0.81	0.729	1.02	0.739	0.736	0.877	0.644	0.927	0.698	0.808
NCI-H1915	0.98	1.1	1.07	0.966	0.966	0.971	1.02	0.995	0.965	0.939
NCI-H1944	0.902	1.07	1.09	0.871	0.77	0.869	0.985	0.973	0.873	0.946
NCI-H1975	0.842	1.02	0.964	0.884	0.813	0.876	1.06	1.09	0.937	0.866
NCI-H1993	0.815	0.956	1.02	0.923	0.622	1.24	0.893	0.957	0.972	0.886
NCI-H2009	0.996	1.03	1.04	1.02	0.923	0.924	1.07	0.994	0.974	1.06
NCI-H2023	0.94	0.966	1.02	0.886	0.773	0.872	0.998	0.997	0.977	1.01
NCI-H2085	0.952	1.01	1	0.983	0.892	0.951	1.01	1.01	0.938	1.03
NCI-H2087	0.918	0.925	1.05	0.951	0.926	1.01	1.01	0.966	1.08	1.09
NCI-H2126	0.885	1.07	0.956	0.979	0.621	1.02	0.999	1.04	0.989	0.948
NCI-H2170	0.909	1	1.01	0.938	0.998	0.988	1.06	1.1	1.03	1.07
